Source: the NIST ThermoML archive (doi:10.1016/j.jct.2019.02.011)

Assay: xn = mol fraction of the nth substance listed
Details: 293.15 K, Liquid, Vibrating tube method

COC(=O)OC [dimethyl carbonate] + CCCO
mass density [kg/m3]
Details | 10000 kPa | 15000 kPa | 20000 kPa | 25000 kPa | 30000 kPa | 35000 kPa
x1 = 0.0273 | – | 821.94 | 825.23 | 828.56 | 831.57 | 834.42
x1 = 0.0506 | – | 828.58 | 831.87 | 835.25 | 838.27 | 841.13
x1 = 0.0755 | – | 835.71 | 839.06 | 842.44 | 845.52 | 848.42
x1 = 0.1007 | – | 842.9 | 846.25 | 849.69 | 852.76 | 855.68
x1 = 0.1495 | – | 856.75 | 860.16 | 863.6 | 866.73 | 869.7
x1 = 0.2003 | – | 871.06 | 874.53 | 878.01 | 881.2 | 884.18
x1 = 0.2529 | 882.09 | 885.77 | 889.3 | 892.84 | 896.04 | 899.12
x1 = 0.2993 | 894.95 | 898.64 | 902.18 | 905.76 | 909.02 | 912.16
x1 = 0.3497 | 908.71 | 912.45 | 916.05 | 919.68 | 923 | 926.2
x1 = 0.401 | 922.59 | 926.38 | 930.03 | 933.72 | 937.09 | 940.3
x1 = 0.4509 | 936.03 | 939.87 | 943.59 | 947.28 | 950.71 | 953.97
x1 = 0.5002 | 949.24 | 953.09 | 956.87 | 960.6 | 964.04 | 967.36
x1 = 0.5498 | 962.47 | 966.32 | 970.1 | 973.84 | 977.34 | 980.72
x1 = 0.5996 | 975.61 | 979.51 | 983.36 | 987.15 | 990.65 | 994.04
x1 = 0.6499 | 988.81 | 992.77 | 996.62 | 1000.46 | 1004.03 | 1007.42
x1 = 0.7006 | 1002.08 | 1006.04 | 1009.95 | 1013.8 | 1017.37 | 1020.81
x1 = 0.7471 | 1014.07 | 1018.08 | 1022.06 | 1025.95 | 1029.53 | 1032.98
x1 = 0.7989 | 1027.41 | 1031.43 | 1035.41 | 1039.31 | 1042.94 | 1046.46
x1 = 0.8491 | 1040.37 | 1044.44 | 1048.43 | 1052.38 | 1056.08 | 1059.59
x1 = 0.8993 | 1053.34 | 1057.42 | 1061.47 | 1065.42 | 1069.12 | 1072.65
x1 = 0.9249 | 1059.86 | 1063.94 | 1067.99 | 1071.94 | 1075.65 | 1079.23
x1 = 0.9489 | 1065.93 | 1070.01 | 1074.07 | 1078.02 | 1081.73 | –
x1 = 0.9743 | 1072.35 | 1076.43 | 1080.5 | 1084.5 | 1088.21 | –
x1 = 1 | 1078.93 | 1083.01 | 1087.08 | 1091.03 | 1094.75 | –
